Experimental findings from ChEMBL document CHEMBL1156987, “Novel azalides derived from 16-membered macrolides. III. Azalides modified at the C-15 and 4'' positions: Improved antibacterial activities” (Bioorg Med Chem, 2010) are described below.

In brackets after ≈: the same amount, converted by molar mass. Some results are limits rather than exact numbers.

Data set [1] deals with Staphylococcus aureus. Kind of data set: Antibacterial activity against Staphylococcus aureus 209P JC1 after 20 hrs by agar dilution method. Format: functional. The conditions noted are these: 209P JC1, 20 h.
Data set [2] concerns Streptococcus pneumoniae. Kind of data set: Antibacterial activity against Streptococcus pneumoniae DP1 type 1 after 20 hrs by agar dilution method. Format: functional. The note with it: DP1 type1, 20 h. In general terms: In agar dilution, organisms are placed on agar that contains the substance at set levels.
Data set [3] deals with Streptococcus pneumoniae. Kind of data set: Antibacterial activity against Streptococcus pneumoniae 5 expressing constitutive ermB methylase after 20 hrs by agar dilution method. In kind it is functional. The conditions noted are these: Streptococcus pneumoniae, 5, 20 h.
In data set [4] the test system is Streptococcus pneumoniae. The data set can be described thus: Antibacterial activity against Streptococcus pneumoniae 6 expressing constitutive ermB methylase and mefA after 20 hrs by agar dilution method. In kind it is functional. The note with it: Streptococcus pneumoniae, 6, 20 h.
Data set [5] concerns Streptococcus pneumoniae. Kind of data set: Antibacterial activity against Streptococcus pneumoniae 7 expressing constitutive ermB methylase after 20 hrs by agar dilution method. In kind it is functional. The note with it: Streptococcus pneumoniae, 7, 20 h.
Data set [6] relates to Streptococcus pneumoniae. The data set can be described thus: Antibacterial activity against Streptococcus pneumoniae 8 expressing inducible ermB methylase after 20 hrs by agar dilution method. Format: functional. The conditions noted are these: Streptococcus pneumoniae, 8, 20 h.
Data set [7] has as its system Streptococcus pneumoniae. The data set can be described thus: Antibacterial activity against Streptococcus pneumoniae 9 expressing inducible ermB methylase after 20 hrs by agar dilution method. In kind it is functional. The conditions noted are these: Streptococcus pneumoniae, 9, 20 h.
In data set [8] the test system is Streptococcus pneumoniae. Kind of data set: Antibacterial activity against Streptococcus pneumoniae 10 expressing mefA efflux pump after 20 hrs by agar dilution method. Format: functional. The conditions noted are these: Streptococcus pneumoniae, 10, 20 h.
The subject of data set [9] is Streptococcus pneumoniae. Kind of data set: Antibacterial activity against Streptococcus pneumoniae 11 expressing mefA efflux pump after 20 hrs by agar dilution method. In kind it is functional. The conditions noted are these: Streptococcus pneumoniae, 11, 20 h.
In data set [10] the test system is Streptococcus pyogenes. Kind of data set: Antibacterial activity against Streptococcus pyogenes Cook after 20 hrs by agar dilution method. Format: functional.
For data set [11], the system named is Streptococcus pyogenes. The data set can be described thus: Antibacterial activity against Streptococcus pyogenes 2 expressing constitutive ermB methylase after 20 hrs by agar dilution method. The conditions noted are these: Streptococcus pyogenes, 2, 20 h. In kind it is functional.
Data set [12] concerns Streptococcus pyogenes. The data set can be described thus: Antibacterial activity against Streptococcus pyogenes 3 expressing mefA efflux pump after 20 hrs by agar dilution method. In kind it is functional. The note with it: Streptococcus pyogenes, 3, 20 h.
Data set [13] concerns Haemophilus influenzae. The data set can be described thus: Antibacterial activity against Haemophilus influenzae 1 after 20 hrs by agar dilution method. In kind it is functional. The conditions noted are these: Haemophilus influenzae, 1, 20 h.
Data set [14] deals with Haemophilus influenzae. Kind of data set: Antibacterial activity against Haemophilus influenzae 2 after 20 hrs by agar dilution method. In kind it is functional. The note with it: Haemophilus influenzae, 2, 20 h.
Data set [15] relates to Haemophilus influenzae. The data set can be described thus: Antibacterial activity against Haemophilus influenzae 3 after 20 hrs by agar dilution method. Format: functional. The note with it: Haemophilus influenzae, 3, 20 h.
Data set [16] in a line: Metabolic stability at human liver S9 fraction assessed as compound remaining after 1 hr. The conditions noted are these: read-out: Stability. In kind it is ADME, subcellular.

For `CCNC(=O)O[C@H]1[C@H](C)O[C@@H](O[C@H]2[C@H](N(C)C)[C@@H](O)[C@H](O[C@H]3[C@@H](CC=O)C[C@@H](C)[C@@H](O)CN(C)CCC[C@H](C/C=C/c4ccc5ccccc5c4)OC(=O)C[C@@H](OC(=O)CC)[C@@H]3OC)O[C@@H]2C)C[C@@]1(C)OC(=O)CC`, the MIC was found to be 2 µg/mL (≈ 1.89 µM) in [1]; 0.06 µg/mL (≈ 0.0568 µM) in data set [2]; 16 µg/mL (≈ 15.1 µM) in [3]; 32 µg/mL (≈ 30.3 µM) in data set [4]; 32 µg/mL (≈ 30.3 µM) in [5]; 0.5 µg/mL (≈ 0.473 µM) in data set [6]. In addition, the MIC in [7] amounted to 0.5 µg/mL (≈ 0.473 µM); in data set [8] it was 0.13 µg/mL (≈ 0.123 µM); in data set [9], 0.13 µg/mL (≈ 0.123 µM); in data set [10] it was 0.25 µg/mL (≈ 0.237 µM); in data set [11], 16 µg/mL (≈ 15.1 µM); in data set [12], 0.5 µg/mL (≈ 0.473 µM). The MIC in data set [13] is 16 µg/mL (≈ 15.1 µM); in [14], 16 µg/mL (≈ 15.1 µM); in [15] it was 32 µg/mL (≈ 30.3 µM). The remaining at 1 h in data set [16] was 82%.
As for `CCC(=O)O[C@@H]1CC(=O)O[C@H](C)C/C=C/C=C/[C@H](OC(C)=O)[C@H](C)C[C@H](CC=O)[C@H](O[C@@H]2O[C@H](C)[C@@H](O[C@H]3C[C@@](C)(OC(C)=O)[C@@H](OC(=O)CC)[C@H](C)O3)[C@H](N(C)C)[C@H]2O)[C@H]1OC` [MIOCAMYCIN], the MIC in data set [1] is 0.5 µg/mL (≈ 0.557 µM); in [2] it was 0.13 µg/mL (≈ 0.145 µM); in data set [3] it was over 128 µg/mL; in [4] it was over 128 µg/mL; in data set [5], over 128 µg/mL; in data set [6], 4 µg/mL (≈ 4.45 µM). Further, the MIC in [7] is 8 µg/mL (≈ 8.91 µM); in [8], 0.25 µg/mL (≈ 0.278 µM); in [9], 0.25 µg/mL (≈ 0.278 µM); in data set [10], 0.13 µg/mL (≈ 0.145 µM); in data set [11], over 128 µg/mL; in data set [12] it was 0.5 µg/mL (≈ 0.557 µM). In addition, the values for the MIC in data set [13], in data set [14] and in data set [15] were 4 µg/mL (≈ 4.45 µM), 16 µg/mL (≈ 17.8 µM) and 16 µg/mL (≈ 17.8 µM), respectively. Further, in data set [16], the remaining at 1 h is 5.1%.
Regarding `CC[C@H]1OC(=O)[C@H](C)C(=O)[C@H](C)[C@@H](O[C@@H]2O[C@H](C)C[C@H](N(C)C)[C@H]2O)[C@](C)(OC)C[C@@H](C)C(=O)[C@H](C)[C@H]2N(CCCCn3cnc(-c4cccnc4)c3)C(=O)O[C@]12C` [TELITHROMYCIN], the MIC in data set [1] was 0.03 µg/mL (≈ 0.0369 µM); in data set [2], under 0.008 µg/mL; in data set [3], 0.5 µg/mL (≈ 0.616 µM); in data set [4], 1 µg/mL (≈ 1.23 µM); in data set [5] it was 1 µg/mL (≈ 1.23 µM); in data set [6], 0.06 µg/mL (≈ 0.0739 µM). Also, the MIC was 0.06 µg/mL (≈ 0.0739 µM) in data set [7]; 0.06 µg/mL (≈ 0.0739 µM) in data set [8]; 0.06 µg/mL (≈ 0.0739 µM) in data set [9]; under 0.008 µg/mL in [10]; 16 µg/mL (≈ 19.7 µM) in [11]; 0.5 µg/mL (≈ 0.616 µM) in data set [12]. Moreover, the MIC in [13] is 0.5 µg/mL (≈ 0.616 µM); in [14], 2 µg/mL (≈ 2.46 µM); in data set [15], 1 µg/mL (≈ 1.23 µM). Also, the remaining at 1 h in data set [16] amounted to 84%.
